Format in all cases: cell-based
The test system of assay [1] is human primary aortic vascular smooth muscle cells (HASMC). Description: Intracellular calcium under ANGII stimulation (Fura-2). The following applies: pretreatment at 10^−9 or 10^−7 M for 5 minutes, ANGII 10^−8 or 10^−7 M. As to the method:
Measurements of Intracellular Calcium in Vascular Smooth Muscle Cells: HASMC (ScienCell Research Laboratories; Carlsbad, Calif.) were cultured and maintained as instructed by the manufacturer. Cells at passage 4 or 5 were used for experiments. Calcium imaging was performed as described elsewhere (Chai et al., Cardiovasc Res, 100:151-159, 2013). Briefly, cells were seeded on a 25 mm round cover glass (Fisher Scientific; Pittsburgh, Pa.) at a density of 5×10^4 cells per slide. The slides had been pretreated with 0.5 N NaOH for 8 hours, rinsed with water, and sterilized before use. After overnight culturing, the slides with cells were assembled in a MS-02 Chamber (ALA Scientific Instrument; Farmingdale, N.Y.) and loaded with 3 μM fura-2 AM (Invitrogen; Carlsbad, Calif.) for 30 minutes in a 37° C. incubator. The chamber was then placed on the stage of an inverted Olympus IX71 microscope (Olympus America Inc.; Waltham, Mass.). The cells were maintained in 1 mL HASMC medium and treated with or without ANP, BNP, or CRRL269 at concentration of 10^−9 or 10^−7 M for 5 minutes before perfused with 5 mL medium containing ANGII (10^−8 or 10^−7 M). Intracellular Ca2^+ fluorescence signals were measured as a ratio of fluorescence intensities at 510 nm from excitations of 340/380 nm, using a Hamamatsu ORCA-R2 CCD camera with a Sutter LB-LS/17 light source. Baseline fluorescence was recorded after 5 minutes of treatment, and fluorescence images were acquired continuously during the ANGII perfusion. Background fluorescence was subtracted and the calcium signal (F) was normalized to baseline fluorescence (FO) and expressed as a ratio (F/FO) using MetaFluor software (Olympus America Inc.).

Assay [2] relates to human primary renal proximal tubular epithelial cells (HRPTC). Briefly: Oil immersion induced hypoxia/reoxygenation (H/R) apoptosis, Caspase 3/7 IncuCyte live imaging. As to the method: Oil Immersion Induced Hypoxia/Reoxygenation in vitro: HRPTC (ScienCell Research Laboratories; Carlsbad, Calif.) were seeded in 96-well plates and cultured for 1 day until 70-80% confluence. Passages 3-5 were used for experiments. Caspase 3/7 green apoptosis assay agent (Essen BioScience; Ann Arbor, Mich.) was added to the culture medium for detection of apoptosis. Plates were then transferred to a time-lapsed, live imaging system IncuCyte (Essen BioScience) for apoptosis monitoring for a total of 24 hours. H/R in cells was mimicked with mineral oil (Sigma, St Louis, Mo.) immersion (Meldrum et al., J Surg Res, 99:288-293, 2001). Cells were immersed in oil for 2 hours, washed twice, and placed in fresh medium containing vehicle (H/R group) or drugs. ANP, BNP, and CRRL269 were used at concentrations of 10^−8, 10^−7, or 10^−6 M. PKG (an important cGMP binding protein) activating analogue 8-pCPT-cGMP (Sigma; St. Louis, Mo.), which is specific for PKG and has low affinity for phosphodiesterases, was used at concentrations of 10^−6, 10^−5, or 10^−4 M. Cells were treated with 10^−6-, 5×10^−6-, or 1.5×10^−5 M PKG inhibitor KT-5823 (Abcam; Cambridge, Mass.) for 30 minutes before 10^−6 M CRRL269 was added. Cells without H/R stimulation were labeled as the negative control (Neg Ctrl) group. Apoptosis signals (e.g., apoptosis object counts) were analyzed with software provided by IncuCyte.

The test system of assay [3] is human renal fibroblasts (HRF). Description: Human renal fibroblast proliferation by cell counting. The following applies: CNP at 10^−7 M every 24 hours, cell count at 72 hours. The method, then:
Human Renal Fibroblasts Proliferation by Cell Counting: Human renal fibroblasts (HRF, Cell Biologics; Chicago, Ill.) were counted and seeded into 48-well plates with complete medium, and then incubated at 37° C., 5% CO2 overnight. The culture medium was replaced with fresh medium containing PBS or CNP at concentrations of 10^−8 or 10^−7 M, and cells were cultured for 72 hours. Fresh CNP was added at 24 and 48 hours. At 72 hours, HRF were trypsinized, stained with 0.2% trypan blue, and counted using a Cedex XS Analyzer (Roche; Indianapolis, Ind.).

Regarding “B-type natriuretic peptide [BNP, reference compound]”, in assay [1], the “Ca2^+ enhancement by ANGII in HASMC” value is recorded as “suppressed”.

In the case of `Nc1nc2c(nc(Sc3ccc(Cl)cc3)n2C2O[C@@H]3COP(=O)(O)O[C@H]3[C@H]2O)c(=O)[nH]1` (stereo in doubt) [8-pCPT-cGMP, reference compound], the “apoptosis inhibition in HRPTC after H/R” value in assay [2] (8-pCPT-cGMP at 10^−6 and 10^−5 M) is given as “mimicked the apoptosis inhibition”.

With `CC[C@H](C)[C@@H]1NC(=O)[C@H](CCCNC(=N)N)NC(=O)[C@H](CC(=O)O)NC(=O)[C@H](CCSC)NC(=O)[C@H](CCCNC(=N)N)NC(=O)CNC(=O)CNC(=O)[C@H](Cc2ccccc2)NC(=O)[C@@H](NC(=O)[C@H](CO)NC(=O)[C@H](CO)NC(=O)[C@H](CCCNC(=N)N)NC(=O)[C@H](CCCNC(=N)N)NC(=O)[C@H](CC(C)C)NC(=O)[C@@H](N)CO)CSSC[C@@H](C(=O)N[C@@H](CC(N)=O)C(=O)N[C@@H](CO)C(=O)N[C@@H](Cc2ccccc2)C(=O)N[C@@H](CCCNC(=N)N)C(=O)N[C@@H](Cc2ccc(O)cc2)C(=O)O)NC(=O)CNC(=O)[C@H](CC(C)C)NC(=O)CNC(=O)[C@H](CO)NC(=O)[C@H](CCC(N)=O)NC(=O)[C@H](C)NC(=O)CNC1=O` [ANP, atrial natriuretic peptide, reference compound], in assay [1], the “Ca2^+ enhancement by ANGII in HASMC” value is listed as “suppressed”.

With “C-type natriuretic peptide (GLSKGCFGLKLDRIGSMSGLGC; listed as Homo sapiens) [CNP]”, the “human renal fibroblast (HRF) proliferation” value in assay [3] is recorded as “suppressed”.

Turning to `COC(=O)[C@@]1(OC)C[C@H]2O[C@]1(C)n1c3ccccc3c3c4c(c5c6ccccc6n2c5c31)C(=O)N(C)C4` [KT-5823, reference compound], the “effect on antiapoptotic effects induced by CRRL269” value in assay [2] (HRPTC, H/R, KT-5823 30 minutes before 10^−6 M CRRL269) is “abrogated”.

The values above are taken from patent US20220155322A1, “USE OF NATRIURETIC PEPTIDES TO ASSESS AND TREAT ACUTE KIDNEY INJURY” (Mayo Foundation for Medical Education and Research, priority 2019, published 2022).
